Data from patent US10669301B2, “Phosphoramidite building blocks for sugar-conjugated oligonucleotides” (AM CHEMICALS LLC, priority 2013, dated 2020).

Test: Hydrolysis of phosphoramidite building blocks in 95% aqueous MeCN followed by reverse-phase HPLC
Format: physicochemical
Settings: 95% aqueous MeCN at 25° C.
Protocol: The hydrolysis of phosphoramidite building blocks 12 and 16 in 95% aqueous MeCN at 25° C. was followed by reverse-phase HPLC.

| Substance | half-life of hydrolysis |
| --- | --- |
| 5′-O-(4,4′-Dimethoxytrityl)-3′-O—[(N,N-diisopropylamino)[2-[[2-[(2,3,4,6-tetra-O-acetyl-β-D-glucopyranosyl)oxy]ethyl]oxy]ethoxy]phosphinyl]thymidine [Compound 16] | 33 h |
| 5′-O-(4,4′-Dimethoxytrityl)-3′-O—[(N,N-diisopropylamino)[3-[(2,3,4,6-tetra-O-acetyl-β-D-glucopyranosyl)oxy]propyl]phosphino]thymidine [Compound 12] | 48 h |
